Tests used:
S. aureus = assay: Wipe test: removal of S. aureus from ceramic tile and transfer to clean tile, visualised with indicator spray; conditions: WTCL wipe treated with aluminum chlorohydrate (1% W/W, add-on approx. 6 to 7%) and 1% Reichardt's dye dots; 100 microliter drops of 10^7 CFU/ml S. aureus on ceramic tile; control wipe's "X" readily visible
Description: A wire-textured coform laminate (WTCL) was treated with aluminum chlorohydrate (1% W/W) using a dip and nip procedure, with a resulting add-on of approximately 6 to 7%. The treated WTCL was then treated with a 1% solution of Reichardt's dye indicator (prepared in acetonitrile) in a small dot pattern using a syringe. Control WTCL wipe material without aluminum chlorohydrate was also used for this experiment as a control. Two 100 microliter drops of 10^7 CFU/ml S. aureus were placed onto a ceramic tile. Treated wipe and control material were both used to wipe the drop off of the tile. These wipes were then used to make an “X” onto clean tiles. These tiles were then sprayed with bacterial indicator solution (80 mg/10 mL acetonitrile) using a Chromist® spray can. The treated WTCL was then also sprayed with the indicator. Finally, the treated wipe (now clearly visible) containing the bacteria was once again used to wipe a clean area of tile. This area was then sprayed with the indicator. The “X” for the control was readily visible.

live culture yogurt = assay: Colour change of Reichardt's dye lines on paper towel after wiping a contaminated cutting board; conditions: VIVA paper towels sprayed with saturated Reichardt's dye in isopropanol with potassium hydroxide; cutting board with light smears of live culture yogurt
From the text: Sheets of VIVA® paper towels (Kimberly-Clark Corporation, Neenah Wis.) were placed on a flat surface, three sheets wide. A stainless steel grilling grate (Weber Company, purchased from Home Depot store) was placed onto top of the sheets. Next a 100-milliliter saturated solution of Reichardt's dye in isopropanol with 10 milliliters of potassium hydroxide was placed into a container and then sprayed (Chromist sprayer) over the grilling grate with the VIVA® towels underneath. The grilling grate was removed and the towels were hung in a fumehood and allowed to dry. The paper towels now had multiple parallel lines of the Reichardt's dye across the paper towel. The lines were 4 centimeters apart. Onto a cutting board surface (plastic cutting boards, Kroger grocery store) was applied light smears (3 cm×15 cm) of live culture yogurt. Next, the treated VIVA® paper towels were used to wipe the surface of the cutting board.

Compound	transfer of bacteria from used wipe to clean tile (S. aureus)	color of the Reichardt's dye lines on contact with contaminated surface (live culture yogurt)
aluminum chlorohydrate	did not transfer bacteria to the clean tile	–
[O-]c1c(-c2ccccc2)cc(-[n+]2c(-c3ccccc3)cc(-c3ccccc3)cc2-c2ccccc2)cc1-c1ccccc1 [Reichardt's dye, 4-(2,4,6-triphenylpyridinium-1-yl)-2,6-diphenylphenolate]	–	rapidly discharged

Source: US8871232B2, “Self-indicating wipe for removing bacteria from a surface” (Kimberly-Clark Worldwide, Inc., priority 2007, dated 2014)
